According to PMC6522510 (Nature Communications, 2019):

Columns and labels:
Set-up in all cases: species or system AML cell lines (8); Primary HTS, single concentration about 10 uM, Cell Titer Glo viability; log10 luminescence, per cent inhibition relative to cycloheximide control
Conditions in all cases: 72 h, relative to cycloheximide control, log10 luminescence; inhibitor
CHRF288-11 = tested on: CHRF288-11
CMK = tested on: CMK
CMS = tested on: CMS
M07e = tested on: M07e
ML-2 = tested on: ML-2
MOLM-13 = tested on: MOLM-13
MV4-11 = tested on: MV4-11
U937 = tested on: U937

| SMILES | CHRF288-11 %inh (CHRF288-11) | CMK %inh (CMK) | CMS %inh (CMS) | M07e %inh (M07e) | ML-2 %inh (ML-2) | MOLM-13 %inh (MOLM-13) | MV4-11 %inh (MV4-11) | U937 %inh (U937) |
| --- | --- | --- | --- | --- | --- | --- | --- | --- |
| COc1cc[nH]c1/C=C1\C(=O)Nc2ccc(F)c(C#CC3(O)CCNCC3)c21 [SJ000581013-1] | 71.86% | 93.46% | 92.23% | 109.1% | 57.56% | 105.4% | 81.96% | 80.6% |
| COc1cccc(C(=O)c2sc(Nc3ccc(N4CCN(C(C)C)CC4)cc3)nc2N)c1 [SJ000581014-1] | 15.68% | 33.11% | 7.49% | 8.945% | 8.496% | 103.8% | 15.32% | 25.4% |
| O=C1NC(=NCCc2cccs2)S/C1=C\c1ccc2ncccc2c1 [SJ000581015-1] | -3.354% | 2.413% | 2.886% | 0.2412% | 1.872% | 1.226% | 1.469% | 4.783% |
| Cn1cc(C2=C(N3CCOCC3)C(=O)NC2=O)c2ccccc21 [SJ000581016-1] | -0.4853% | -3.99% | 2.558% | -1.546% | 1.058% | -0.4077% | -3.16% | -0.03629% |
| Cn1cc(C2=C(c3c4n(c5ccccc35)CCN(C(N)=S)C4)C(=O)NC2=O)c2ccccc21 [SJ000581017-1] | 61.39% | 110.3% | 66.21% | 14.07% | 14.21% | 83.86% | 52.04% | 15.09% |
| Nc1c(C(=O)c2ccc(CCCN3CCOCC3)cc2)cnn1-c1ccc(F)cc1 [SJ000581018-1] | 6.032% | 0.7543% | 2.2% | 0.8427% | 1.663% | 3.662% | 0.41% | 1.825% |
| O=C1NC(=N[C@@H](CO)Cc2ccccc2)S/C1=C\c1ccc2ncccc2c1 [SJ000581019-1] | 42.52% | 99.34% | 8.828% | 15.21% | 8.345% | 62.37% | 35.98% | 18.33% |
| O=C1NC(=N[C@H](CO)Cc2ccccc2)S/C1=C\c1ccc2ncccc2c1 [SJ000581019-2] | 7.52% | 5.29% | 2.2% | 7.526% | 1.703% | 1.796% | 1.969% | 7.541% |
| Nc1c(C(=O)c2cccc(OC[C@H](O)CO)c2)cnn1-c1ccc(F)cc1 [SJ000581020-1] | 2.337% | 3.324% | 0.9092% | 2.292% | 2.034% | 0.004587% | 0.9707% | 0.3347% |
| COc1ccc(F)cc1C(=O)c1cnc(NC2CCN(S(C)(=O)=O)CC2)nc1N [SJ000581021-1] | 14.05% | 28.45% | 25.29% | 26.32% | 16.42% | 27.57% | 23.41% | 26.91% |
| Cn1cc(C2=C(c3c4n(c5ccccc35)CCC(CN)CC4)C(=O)NC2=O)c2ccccc21 (stereo not drawn) [SJ000581022-1] | 0.7803% | 2.783% | 0.653% | 8.854% | 3.751% | 2.979% | 5.378% | 3.425% |
| CS(=O)(=O)CCn1c(=O)c(Oc2ccc(F)cc2F)cc2cnc(NC3CCOCC3)nc21 [SJ000581023-1] | 8.185% | 0.4611% | -0.4321% | 1.483% | 0.4592% | -0.00779% | 1.997% | -0.5257% |
| Cn1c(=O)c(Oc2ccc(F)cc2F)cc2cnc(NC(CO)CO)nc21 [SJ000581024-1] | -0.0002567% | -1.172% | -1.976% | 1.393% | 0.9662% | 0.3413% | 1.357% | 3.277% |
| CC(=O)N[C@@H](Cc1ccc(OP(=O)(O)O)cc1)C(=O)N[C@H]1CCC(=O)N2CCC[C@@H](C(=O)NCc3ccccc3)N2C1=O [SJ000581025-1] | 3.231% | -3.468% | 0.9205% | -1.273% | 0.2617% | 0.5747% | -4.371% | 0.2421% |
| CNCC1CCn2c(c(C3=C(c4cn(C)c5ccccc45)C(=O)NC3=O)c3ccccc32)C1 (stereo not drawn) [SJ000581026-1] | 5.735% | 19.67% | 2.453% | 4.053% | 5.596% | 5.409% | 3.218% | 3.941% |
| COc1cc[nH]c1/C=C1\C(=O)Nc2ccccc21 [SJ000581028-1] | 5.171% | 2.429% | -2.846% | 0.1646% | 2.572% | 93.27% | 72.48% | -1.475% |
| Cn1cc(C2=C(c3cn(CCCN)c4ccccc34)C(=O)NC2=O)c2ccccc21 [SJ000581029-1, RO 31-7549] | 63.26% | 7.447% | -0.005694% | -0.4351% | -0.6707% | 8.447% | 2.189% | 0.8505% |
| COc1cc(F)c(F)cc1C(=O)c1cnc(NC2CCN(S(C)(=O)=O)CC2)nc1N [SJ000581030-1] | 9.313% | 33.04% | 6.337% | 10.16% | 12.87% | 17.32% | 13.02% | 15.86% |
| Cc1ccccc1-n1ncc(C(=O)c2ccccc2)c1N [SJ000581031-1] | -2.402% | -0.4181% | -2.229% | 0.1374% | 1.074% | 0.4251% | -0.9776% | 4.01% |
| Cn1c(=O)c(Cc2ccc(F)cc2F)cc2cnc(NC3CCOCC3)nc21 [SJ000581032-1] | -3.947% | 3.89% | 0.5188% | 1.669% | 0.882% | 4.514% | 0.6569% | -0.7764% |
| Nc1c(C(=O)c2cccc(CCCN3CCOCC3)c2)cnn1-c1ccc(F)cc1 [SJ000581033-1] | 0.5002% | -2.511% | -0.1935% | 1.168% | 2.815% | -0.1425% | -0.6007% | 0.5296% |
| O=C1NC(=NCCc2ccccc2Cl)S/C1=C\c1ccc2ncccc2c1 [SJ000581034-1] | -2.34% | -2.328% | 1.664% | 0.7717% | 3.879% | 1.218% | -0.3328% | 0.6904% |
| CSc1c(C2=C(c3cn(C)c4ccccc34)C(=O)NC2=O)c2ccccc2n1C [SJ000581035-1] | 9.742% | 87.18% | 16.27% | 31.51% | 21.47% | 28.45% | 31.9% | 26.62% |
| CN(C)CC#Cc1cccc(C(=O)c2cnn(-c3ccc(F)cc3)c2N)c1 [SJ000581036-1] | -3.732% | 1.135% | 3.514% | 2.548% | 0.4348% | 29.95% | 0.9409% | 6.781% |
